How the values were obtained:
EpsI/Nla24 = target: T1, EpsI/Nla24 (Myxococcus xanthus, UniProt Q1CVM8); experiment: SPR (Biacore T200), steady-state affinity fit; format: binding; conditions: labelled compound: biotinylated c-di-GMP immobilised on streptavidin chip, protein as analyte; paper states KD as that of c-di-GMP; 10 mM HEPES, 150 mM NaCl, 2 mM MgCl2, pH 6.8, 25°C
T1 construct: calculated 50 kDa; receiver, AAA+ and HTH domains

DmxB = target: T2, DmxB (Myxococcus xanthus, UniProt Q1D603, R210A); experiment: TLC of [α-32P]-GTP products (diguanylate cyclase assay); format: biochemical; conditions: labelled compound; I-site mutant; 1 mM GTP, 10 μM protein, 10 mM MgCl2, 300 mM NaCl, pH 8.0, 30°C
T2 construct: gene MXAN_3735; full-length, DmxB-His6 from pET24b(+) (pDJS30), made in E. coli Rosetta 2(DE3), Ni-NTA; N-terminal receiver, C-terminal GGDEF
T2 sequence (Q1D603 entry or part of it R210A): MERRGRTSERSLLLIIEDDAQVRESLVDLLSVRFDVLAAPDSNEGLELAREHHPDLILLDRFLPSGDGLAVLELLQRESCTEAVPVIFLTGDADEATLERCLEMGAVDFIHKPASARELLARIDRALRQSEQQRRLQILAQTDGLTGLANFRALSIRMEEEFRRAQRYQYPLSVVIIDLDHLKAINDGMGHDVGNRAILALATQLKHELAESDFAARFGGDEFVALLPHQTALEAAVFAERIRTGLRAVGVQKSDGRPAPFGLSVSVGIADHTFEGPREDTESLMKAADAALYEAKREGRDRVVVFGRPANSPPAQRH

T1 sequence (Q1CVM8 entry or part of it): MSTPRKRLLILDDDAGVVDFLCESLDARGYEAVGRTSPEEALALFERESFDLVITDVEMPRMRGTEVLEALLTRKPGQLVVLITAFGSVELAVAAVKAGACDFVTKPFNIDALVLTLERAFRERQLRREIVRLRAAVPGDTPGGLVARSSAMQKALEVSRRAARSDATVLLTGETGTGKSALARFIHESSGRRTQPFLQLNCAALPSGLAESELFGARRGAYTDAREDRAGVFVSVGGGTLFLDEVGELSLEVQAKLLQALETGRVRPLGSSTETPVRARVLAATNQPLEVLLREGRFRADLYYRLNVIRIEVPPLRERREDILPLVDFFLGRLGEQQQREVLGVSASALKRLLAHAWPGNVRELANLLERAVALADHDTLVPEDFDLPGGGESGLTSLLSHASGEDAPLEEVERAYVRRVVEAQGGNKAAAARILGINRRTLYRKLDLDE

Compound	Kd (EpsI/Nla24) [nM]	TLC of [α-32P]-GTP products (diguanylate cyclase assay) (DmxB)
biotinylated c-di-GMP	530 ± 60	
Nc1nc2c(ncn2[C@@H]2O[C@H](COP(=O)(O)OP(=O)(O)OP(=O)(O)O)[C@@H](O)[C@H]2O)c(=O)[nH]1 [GTP]		the I-site mutant had slightly increased DGC activity in vitro in comparison to the WT

Source: PMC4877007, “A Minimal Threshold of c-di-GMP Is Essential for Fruiting Body Formation and Sporulation in Myxococcus xanthus” (PLoS Genetics, 2016)
